Results as given in publication PMC4138991, “Building a Better Dynasore: The Dyngo Compounds Potently Inhibit Dynamin and Endocytosis” (Traffic (Copenhagen, Denmark), 2013).
“Also recorded” adds a separate entry of the source.

Key:
[1] = target: native sheep brain dynamin I (Ovis aries, UniProt A0ACI6PDC7); test: PS liposome-stimulated (helical) dynamin I GTPase assay (Malachite Green); assay type: biochemical; details: IC50 with versus without Tween-80
Excerpt: Recombinant dynamin I was used only for the data in Table 2. The dynamin antibodies were from: Dynamin I—in‐house YF2 antibodies, raised in rabbits against two different synthetic peptides: dynamin I 629‐647 ([…]) and dynamin I 765–778 ([…]), used at 1/2000 dilution, as previously described 53; Dynamin II—Santa Cruz (C‐18, sc‐6400, used at 1/1000) and Dynamin III—Santa Cruz (P‐13, sc‐69472, used at 1/500 dilution).
The Malachite Green colorimetric GTPase assay was as described 10. Dynamin I activity was measured in its SAI activity state or was stimulated by three different methods. As each stimulus activates dynamin to different extents, each assay required different dynamin concentrations. First, maximal dynamin activity was stimulated by sonicated PS liposomes 10. […] Finally, dynamin (500 nM) SAI activity was measured using high concentrations of dynamin, which promote its cooperative self‐assembly into rings (but not helices) 26. […] After the Vmax and Km values were determined, the data were transformed using the Lineweaver–Burke equation, 1/v = 1/Vmax + (Km/Vmax)(1/[S]).

[2] = test system: Tfn-A594 uptake in U2OS cells; test: Automated quantitative CME assay: Tfn-A594 uptake; assay type: cell-based; details: for CME IC50 (μM) / IC50: Tfn-A594 uptake, U2OS, 30-min preincubation, serum-free; for IC50: Homo sapiens, read-out: CME IC50
Method: To determine whether the Dyngo compounds are widespread cell‐permeable and endocytosis inhibitors, CME of fluorescent Tfn was compared in an automated quantitative endocytosis assay in U2OS cells. The assay consisted of over 1200 cells under serum‐free conditions; after preincubation with each analog for 30 min the uptake of fluorescent Tfn was measured. We refer to this endocytosis as non‐neuronal CME to distinguish it from CME of synaptic vesicles in presynaptic terminals of neurons, which is referred to as synaptic vesicle endocytosis (SVE). In these cells, Tfn uptake is presumed to be mediated by dynamin II, because this is the only isoform of dynamin that they express, as determined by western blot (Figure S6). […] There was no apparent correlation between in vitro and in‐cell activity, with potent dynamin‐active compounds like 1a and 14a having no effect on non‐neuronal CME (Table 1). This might be explained by low membrane permeability of these analogs, their cellular metabolism or rapid cellular efflux mechanisms.
Quantitative analysis of the inhibition of Alexa 594‐Tfn endocytosis in U2OS cells was performed on large numbers of serum‐starved cells as described 10. Synaptic vesicle recycling in cultured CGNs was monitored using FM1‐43 as described 57 (see Supporting Information). Dynamin‐independent endocytosis was measured using internalization of CT in NIH3T3 cells (using Tfn as a control) as described previously 58 with minor changes (see Supporting Information). The average number of cells for each data point was ˜1200. IC50 values were calculated using GraphPad Prism 5 and data were expressed as mean ± 95% confidence interval (CI) for three wells and ˜1200 cells.

dynamin = test system: dynamin; set-up: method as in PMID 19459681; details: read-out: dynamin inhibitor potency; cited from earlier work

native sheep brain dynamin I, sequence (A0ACI6PDC7 entry or part of it): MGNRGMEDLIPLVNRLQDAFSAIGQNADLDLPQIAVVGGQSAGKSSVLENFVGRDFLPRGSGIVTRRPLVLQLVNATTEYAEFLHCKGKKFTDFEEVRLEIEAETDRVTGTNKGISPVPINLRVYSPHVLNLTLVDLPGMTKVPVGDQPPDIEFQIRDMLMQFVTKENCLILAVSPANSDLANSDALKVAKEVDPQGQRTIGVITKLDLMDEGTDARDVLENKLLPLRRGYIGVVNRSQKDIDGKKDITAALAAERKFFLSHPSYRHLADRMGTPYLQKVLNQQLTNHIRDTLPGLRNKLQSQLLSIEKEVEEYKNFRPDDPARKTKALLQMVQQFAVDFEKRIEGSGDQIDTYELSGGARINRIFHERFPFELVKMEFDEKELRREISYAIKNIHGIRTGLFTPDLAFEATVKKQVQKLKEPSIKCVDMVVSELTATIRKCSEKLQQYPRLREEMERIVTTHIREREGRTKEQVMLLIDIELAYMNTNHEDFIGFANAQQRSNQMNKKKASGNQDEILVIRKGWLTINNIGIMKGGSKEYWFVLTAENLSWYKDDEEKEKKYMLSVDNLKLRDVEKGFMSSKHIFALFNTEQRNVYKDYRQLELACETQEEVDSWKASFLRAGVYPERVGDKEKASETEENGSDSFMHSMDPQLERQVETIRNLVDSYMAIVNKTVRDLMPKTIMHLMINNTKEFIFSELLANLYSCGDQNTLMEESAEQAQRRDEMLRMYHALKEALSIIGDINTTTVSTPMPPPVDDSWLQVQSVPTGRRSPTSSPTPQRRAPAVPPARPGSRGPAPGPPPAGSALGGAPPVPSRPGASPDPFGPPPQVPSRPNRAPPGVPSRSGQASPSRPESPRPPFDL

## O=C(N/N=C/c1ccc(O)cc1O)c1cc2ccccc2cc1O [1a, (E)-N'-(2,4-Dihydroxybenzylidene)-3-hydroxy-2-naphthohydrazide]
[1]
  detergent (Tween) sensitivity: fold potency change on removal of Tween: < 10 fold
[2]
  CME IC50 (μM): little or no effect; also recorded: Not active (n = 3)

## O=C(N/N=C/c1ccc(O)c(O)c1O)c1cc2ccccc2cc1O [3a, (E)-3-Hydroxy-N'-(2,3,4-trihydroxybenzylidene) -2-naphthohydrazide]
[2]
  IC50: 9.8 ± 1.5 µM

## O=C(N/N=C/c1cc(O)c(O)c(O)c1)c1cc2ccccc2cc1O [5a, (E)-3-Hydroxy-N'-(3,4,5-trihydroxybenzylidene) -2-naphthohydrazide]
[2]
  IC50: 6.2 ± 2 µM
[2]; same conditions, U2OS Tfn uptake
  times more potent than dynasore in CME assay: six times more potent

## O=C(N/N=C/c1cc(O)cc(O)c1)c1cc2ccccc2cc1O [8a, (E)-N'-(3,5-Dihydroxybenzylidene)-3-hydroxy-2-naphthohydrazide]
[2]
  IC50: 179 ± 20 µM

## CC(=O)Nc1ccc(/C=N/NC(=O)c2cc3ccccc3cc2O)cc1 [10a, (E)-N-(4-{[2-(3-hydroxy-2-naphthoyl)hydrazono]methyl}phenyl)acetamide]
[2]
  CME IC50 (μM): Not active (n = 2)

## Cc1[nH]c2ccccc2c1/C=N/NC(=O)c1cc2ccccc2cc1O [11a, (E)-3-hydroxy-N'-((2-methyl-1H-indol-3-yl)methylene)-2-naphthohydrazide]
[2]
  IC50: 63.4 ± 4.4 µM

## O=C(NN=Cc1cnc2ccccc2n1)c1cc2ccccc2cc1O [12a, 3-Hydroxynaphthalene-2-carboxylic acid quinoxaline-2-ylmethylenehydrazide]
[2]
  CME IC50 (μM): Not active (n = 2)

## O=C(N/N=C/c1ccc2nonc2c1)c1cc2ccccc2cc1O [13a, (E)-N'-(benzo[c][1,2,5]oxadiazol-5-ylmethylene)-3-hydroxy-2-naphthohydrazide]
[2]
  CME IC50 (μM): Not active (n = 3)

## O=C(N/N=C/c1ccc2nsnc2c1)c1cc2ccccc2cc1O [14a, (E)-N'-(benzo[c][1,2,5]thiadiazol-5-ylmethylene)-3-hydroxy-2-naphthohydrazide]
[2]
  CME IC50 (μM): no effect; also recorded: Not active (n = 4)

## CCCCCCCCNC(=O)C(C#N)=Cc1cn(CCN(C)C)c2ccccc12 [Dynole 34‐2, 2‐cyano‐3‐(1‐(2‐(dimethylamino)ethyl)‐1H‐indol‐3‐yl)‐N‐octylacrylamide]
dynamin
  IC50: 1.3 ± 0.3 µM
